Measurements reported in ChEMBL document CHEMBL1201862, “PubChem BioAssay data set” (2004).
Calls of active or inactive are those of the source.

Key:
[1] = target: SWI/SNF-related matrix-associated actin-dependent regulator of chromatin subfamily A member 2 (Homo sapiens, UniProt P51531); assay: Luminescence-based cell-based high throughput dose response assay to identify activators of the function of SWI/SNF related, matrix associated, actin dependent regulator of chromatin, subfamily a, member 2 (SMARCA2, BRM).; assay type: functional
[2] = Counterscreen for activators of the function of SWI/SNF related, matrix associated, actin dependent regulator of chromatin, subfamily a, member 2 (SMARCA2, BRM): Luminescence-based cell-based high throughput dose response assay to identify non-selective compounds using the VP16 reporter assay.; assay type: functional
[3] = target: T1, Disintegrin and metalloproteinase domain-containing protein 17 (Homo sapiens, UniProt P78536); assay: exosite inhibitors of ADAM17, dose response, biochemical (AID 743260)
[4] = inhibition of ADAM10 peptide cleavage – biochemical, FRET peptide substrate, recombinant human ADAM10, selectivity assay for ADAM17 exosite inhibitor project, dose response (AID 743259);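 further: ADAM10 enzyme cleaving a FRET peptide substrate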
Beta-lactamase [5] = target: T2, Beta-lactamase (Pseudomonas aeruginosa, UniProt Q79MP6); assay: […] counterscreen for selective VIM-2 inhibitors: dose response biochemical high throughput screening assay to identify inhibitors of IMP-1 metallo-beta-lactamase.
Beta-lactamase [6] = target: T2, Beta-lactamase; assay: inhibition of IMP-1 beta-lactamase activity – biochemical, epi-absorbance, selectivity assay for VIM-2 inhibitor project, dose response (AID 1920)
Beta-lactamase [7] = target: Beta-lactamase (Salmonella choleraesuis (strain SC-B67), UniProt Q5J463); assay: Epi-absorbance-based counterscreen for selective VIM-2 inhibitors: dose response biochemical high throughput screening assay to identify inhibitors of TEM-1 serine-beta-lactamase.
[8] = general mammalian cell viability loss – activator set, cherry-pick, cytotoxicity control for miR-122 modulator project, dose response (AID 720690); assay type: functional, cell-based;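 further: HEK293T human cells scored for general mammalian cytotoxicity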
[9] = general mammalian cell viability loss – inhibitor set, cherry-pick, set 2, cytotoxicity control for miR-122 modulator project, dose response (AID 720697); assay type: functional, cell-based
[10] = activation of miR-122 Renilla sensor silencing – cell-based, Huh7 psiCHECK-miR122, Renilla luciferase, cherry-picked, dose response (AID 651956); assay type: functional;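 further: huh7 hepatoma cells stably carrying a psiCHECK-2 miR-122 sensor plasmid; renilla luciferase signal reporting endogenous miR-122 activity after 48 h compound exposure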
[11] = Counterscreen for inhibitors of Trypanosoma brucei methionyl tRNA synthetase (MetRS): Luminescence-based cell-based high throughput dose response assay to identify compounds that are cytotoxic to Jurkat human T lymphocyte cells.; assay type: functional
[12] = target: T3, Methionyl-tRNA synthetase, putative (Trypanosoma brucei brucei, UniProt Q38C91); assay type: functional, Trypanosoma brucei brucei strain 927/4 GUTat10.1
T3 sequence (Q38C91 whole entry): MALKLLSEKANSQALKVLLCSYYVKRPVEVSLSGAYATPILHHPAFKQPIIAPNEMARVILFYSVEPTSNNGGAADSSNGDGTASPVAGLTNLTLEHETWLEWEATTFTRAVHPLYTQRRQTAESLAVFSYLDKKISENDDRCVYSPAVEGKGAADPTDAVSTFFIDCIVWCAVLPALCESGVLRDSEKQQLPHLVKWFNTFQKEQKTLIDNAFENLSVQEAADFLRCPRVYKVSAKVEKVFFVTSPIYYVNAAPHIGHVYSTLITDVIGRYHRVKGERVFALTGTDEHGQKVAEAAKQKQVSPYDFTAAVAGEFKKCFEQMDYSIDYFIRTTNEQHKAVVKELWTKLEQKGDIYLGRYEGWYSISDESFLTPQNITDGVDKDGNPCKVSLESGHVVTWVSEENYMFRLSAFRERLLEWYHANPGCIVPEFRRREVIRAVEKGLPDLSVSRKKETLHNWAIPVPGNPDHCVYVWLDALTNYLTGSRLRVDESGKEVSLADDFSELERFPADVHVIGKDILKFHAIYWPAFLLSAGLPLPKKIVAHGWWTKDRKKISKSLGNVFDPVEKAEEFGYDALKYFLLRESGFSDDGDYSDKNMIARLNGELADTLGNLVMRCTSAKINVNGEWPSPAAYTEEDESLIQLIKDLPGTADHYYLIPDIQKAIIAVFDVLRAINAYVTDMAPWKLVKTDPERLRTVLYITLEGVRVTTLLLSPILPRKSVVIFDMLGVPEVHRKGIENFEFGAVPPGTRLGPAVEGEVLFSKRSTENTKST

[13] = target: T3, Methionyl-tRNA synthetase, putative; assay type: functional, Trypanosoma brucei brucei strain 927/4 GUTat10.1; remark: listed apart in the source
[14] = target: T1, Disintegrin and metalloproteinase domain-containing protein 17; assay: inhibition of ADAM17 substrate cleavage – biochemical, quenched FRET substrate, counter-screen for ADAM10 exosite inhibitor project, dose response (AID 743253)
[15] = potency of ADAM10 substrate cleavage blockers – biochemical, QFRET, dose response (AID 743254);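 further: ADAM10 enzyme with the DM2 quenched FRET peptide as substrate; EDANS fluorescence gain as the protease cuts the substrate; inhibitor potency against ADAM10 proteolytic activity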
[16] = target: T4, Heat shock factor protein 1 (Mus musculus, UniProt P38532); assay: enhancement of HSF1-driven luciferase signal – cell-based, NIH3T3, luminescence, dose retest, confirmation (AID 435004); assay type: functional;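 further: stress induced by proteasome inhibitor MG132 added 30 min after compound; luciferase reporter driven by HSF1 response element in NIH3T3 cells; actives raise luminescence as potentiators of the MG132 stress response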
T4 sequence (P38532 whole entry): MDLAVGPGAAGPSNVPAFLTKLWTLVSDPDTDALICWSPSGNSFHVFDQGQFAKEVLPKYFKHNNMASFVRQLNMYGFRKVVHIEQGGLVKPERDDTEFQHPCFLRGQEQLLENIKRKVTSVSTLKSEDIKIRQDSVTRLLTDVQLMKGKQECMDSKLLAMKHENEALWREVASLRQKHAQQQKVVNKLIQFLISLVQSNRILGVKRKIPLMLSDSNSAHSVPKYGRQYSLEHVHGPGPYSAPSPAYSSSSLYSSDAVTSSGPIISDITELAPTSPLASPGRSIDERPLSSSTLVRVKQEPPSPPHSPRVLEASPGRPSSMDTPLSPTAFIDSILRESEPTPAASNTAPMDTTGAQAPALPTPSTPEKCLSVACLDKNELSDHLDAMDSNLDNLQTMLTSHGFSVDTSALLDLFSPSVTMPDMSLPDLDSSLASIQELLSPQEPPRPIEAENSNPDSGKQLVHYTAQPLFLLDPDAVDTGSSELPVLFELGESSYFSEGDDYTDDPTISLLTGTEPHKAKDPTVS

[17] = target: Fructose-bisphosphate aldolase (Mycobacterium tuberculosis, UniProt P9WQA3); assay: Fluorescence-based biochemical high throughput dose response assay for inhibitors of the fructose-bisphosphate aldolase (FBA) of M. tuberculosis.; assay type: functional
[18] = viability of uninfected HEp-2 cells – cell-based, HTS, cytotoxicity control for RSV inhibitor project, dose response (AID 2410); assay type: functional; details: human respiratory syncytial virus
[19] = T. cruzi growth inhibition in host cells, dose response, cell-based, plate reader, dry powder, set 2 (AID 652275); assay type: functional
[20] = inhibition of bursicon-driven LGR2 cAMP signaling – cell-based, HEK293, CRE-luciferase reporter, cherry pick, dose response (AID 743342); assay type: functional

T2 sequence (Q79MP6 whole entry): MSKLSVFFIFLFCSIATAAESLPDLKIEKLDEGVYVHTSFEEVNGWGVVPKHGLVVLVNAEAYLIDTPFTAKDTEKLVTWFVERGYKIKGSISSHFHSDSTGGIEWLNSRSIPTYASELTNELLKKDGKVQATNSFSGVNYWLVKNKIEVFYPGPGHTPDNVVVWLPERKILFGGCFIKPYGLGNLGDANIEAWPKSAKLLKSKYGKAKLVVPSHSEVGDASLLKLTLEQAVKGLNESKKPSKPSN
T1 sequence (P78536 whole entry, the tested form may be a part): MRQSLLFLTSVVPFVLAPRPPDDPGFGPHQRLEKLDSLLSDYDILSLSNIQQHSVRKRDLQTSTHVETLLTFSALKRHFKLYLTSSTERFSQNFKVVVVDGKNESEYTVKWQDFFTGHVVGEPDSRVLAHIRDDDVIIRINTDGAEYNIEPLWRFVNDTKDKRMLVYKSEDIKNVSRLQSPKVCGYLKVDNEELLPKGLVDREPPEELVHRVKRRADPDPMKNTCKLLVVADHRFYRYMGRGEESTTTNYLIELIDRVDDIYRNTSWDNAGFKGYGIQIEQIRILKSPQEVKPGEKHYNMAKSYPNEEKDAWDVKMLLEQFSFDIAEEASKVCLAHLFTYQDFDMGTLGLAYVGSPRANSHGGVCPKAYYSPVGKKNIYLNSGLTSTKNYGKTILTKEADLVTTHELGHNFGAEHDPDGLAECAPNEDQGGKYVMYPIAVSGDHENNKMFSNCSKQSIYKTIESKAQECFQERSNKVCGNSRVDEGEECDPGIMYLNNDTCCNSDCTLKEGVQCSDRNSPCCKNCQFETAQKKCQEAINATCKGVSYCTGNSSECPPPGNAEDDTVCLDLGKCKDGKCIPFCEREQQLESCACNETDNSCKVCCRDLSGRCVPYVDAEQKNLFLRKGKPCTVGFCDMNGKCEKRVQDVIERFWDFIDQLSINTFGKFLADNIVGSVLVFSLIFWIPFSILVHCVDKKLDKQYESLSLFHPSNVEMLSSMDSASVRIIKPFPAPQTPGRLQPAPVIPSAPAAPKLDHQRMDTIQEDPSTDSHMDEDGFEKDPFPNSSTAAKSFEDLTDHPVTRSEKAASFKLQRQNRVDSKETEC
Sequence of SWI/SNF-related matrix-associated actin-dependent regulator of chromatin subfamily A member 2 (P51531 whole entry): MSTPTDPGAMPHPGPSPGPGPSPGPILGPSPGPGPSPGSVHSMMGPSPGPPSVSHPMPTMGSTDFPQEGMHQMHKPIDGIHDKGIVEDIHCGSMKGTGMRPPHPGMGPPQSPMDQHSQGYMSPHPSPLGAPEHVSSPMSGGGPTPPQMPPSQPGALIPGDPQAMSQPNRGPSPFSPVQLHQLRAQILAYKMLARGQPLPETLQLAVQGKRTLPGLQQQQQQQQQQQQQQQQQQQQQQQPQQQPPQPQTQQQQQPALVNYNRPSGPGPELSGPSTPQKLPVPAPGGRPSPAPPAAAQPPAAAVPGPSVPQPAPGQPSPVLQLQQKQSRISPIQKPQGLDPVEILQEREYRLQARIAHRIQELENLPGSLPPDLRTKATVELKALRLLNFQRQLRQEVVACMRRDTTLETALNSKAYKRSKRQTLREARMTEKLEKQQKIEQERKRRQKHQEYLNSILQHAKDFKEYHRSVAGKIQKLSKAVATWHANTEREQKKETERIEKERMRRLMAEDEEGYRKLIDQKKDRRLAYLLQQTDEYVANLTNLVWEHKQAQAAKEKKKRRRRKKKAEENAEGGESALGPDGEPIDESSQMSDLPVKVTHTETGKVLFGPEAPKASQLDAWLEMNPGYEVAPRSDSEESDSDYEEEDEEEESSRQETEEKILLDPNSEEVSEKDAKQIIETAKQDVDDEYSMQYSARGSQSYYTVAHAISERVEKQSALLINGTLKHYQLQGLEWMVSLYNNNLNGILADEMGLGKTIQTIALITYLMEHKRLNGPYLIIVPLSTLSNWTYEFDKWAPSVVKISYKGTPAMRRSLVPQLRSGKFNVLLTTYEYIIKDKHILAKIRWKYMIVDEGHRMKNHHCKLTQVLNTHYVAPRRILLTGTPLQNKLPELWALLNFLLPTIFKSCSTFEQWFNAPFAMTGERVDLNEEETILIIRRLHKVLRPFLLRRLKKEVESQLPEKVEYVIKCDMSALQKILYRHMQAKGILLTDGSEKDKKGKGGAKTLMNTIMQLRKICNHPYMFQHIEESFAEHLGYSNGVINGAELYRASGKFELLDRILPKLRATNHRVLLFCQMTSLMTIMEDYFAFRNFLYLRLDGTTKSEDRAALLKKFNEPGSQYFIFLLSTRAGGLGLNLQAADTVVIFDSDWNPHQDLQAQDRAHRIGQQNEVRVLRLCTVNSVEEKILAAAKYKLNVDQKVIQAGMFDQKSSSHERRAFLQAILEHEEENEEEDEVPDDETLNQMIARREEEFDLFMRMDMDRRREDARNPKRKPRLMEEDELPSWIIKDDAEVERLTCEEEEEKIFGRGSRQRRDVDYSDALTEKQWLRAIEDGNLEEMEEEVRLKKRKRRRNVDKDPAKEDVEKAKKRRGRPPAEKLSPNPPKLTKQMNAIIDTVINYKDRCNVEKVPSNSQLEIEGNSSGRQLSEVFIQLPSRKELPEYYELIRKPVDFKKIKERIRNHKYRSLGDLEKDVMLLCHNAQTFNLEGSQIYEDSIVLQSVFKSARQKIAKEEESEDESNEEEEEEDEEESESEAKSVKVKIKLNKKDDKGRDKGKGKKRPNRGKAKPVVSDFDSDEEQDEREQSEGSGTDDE
Sequence of Beta-lactamase (Salmonella choleraesuis (strain SC-B67), UniProt Q5J463) (Q5J463 whole entry): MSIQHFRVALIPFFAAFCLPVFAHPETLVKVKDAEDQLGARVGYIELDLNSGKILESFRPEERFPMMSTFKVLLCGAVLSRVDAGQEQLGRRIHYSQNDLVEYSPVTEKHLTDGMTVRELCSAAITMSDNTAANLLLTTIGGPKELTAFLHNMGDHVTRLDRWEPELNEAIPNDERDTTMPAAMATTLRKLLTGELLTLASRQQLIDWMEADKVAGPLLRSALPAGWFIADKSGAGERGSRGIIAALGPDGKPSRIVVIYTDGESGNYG
Sequence of Fructose-bisphosphate aldolase (P9WQA3 whole entry): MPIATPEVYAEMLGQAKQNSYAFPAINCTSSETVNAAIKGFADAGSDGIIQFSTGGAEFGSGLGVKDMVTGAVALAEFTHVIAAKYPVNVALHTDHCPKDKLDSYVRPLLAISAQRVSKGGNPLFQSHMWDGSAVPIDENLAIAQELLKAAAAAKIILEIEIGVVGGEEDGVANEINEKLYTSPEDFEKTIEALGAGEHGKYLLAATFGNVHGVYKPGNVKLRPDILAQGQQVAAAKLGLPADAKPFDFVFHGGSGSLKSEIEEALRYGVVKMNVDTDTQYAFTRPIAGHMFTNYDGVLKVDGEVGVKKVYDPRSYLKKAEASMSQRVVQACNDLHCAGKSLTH

CC(C)(C)NC(=O)C(CCc1ccccc1)n1c(=O)c(-c2ccccc2)nc2ccccc21 (stereo not drawn)
EC50 [1]: > 91.1 µM (inactive)
EC50 [2]: > 91.1 µM (inactive)

COc1ccc(Cn2cc(CN3CCS(=O)(=O)N(Cc4ccc(-c5cccc(Cl)c5)cc4)C(C)C3=O)nn2)cc1 (stereo not drawn)
IC50 [3]: > 69.5 µM (inactive)
IC50 [4]: > 69.5 µM (inactive)

Cc1cc(=O)oc2c3c(cc(OCC(=O)N4CCC[C@H]4C(=O)O)c12)OC(C)(C)CC3
IC50 (Beta-lactamase [5]): > 59.6 µM (inactive)
IC50 (Beta-lactamase [6]): > 59.6 µM (inactive)
IC50 (Beta-lactamase [7]): > 59.6 µM (inactive)

C[C@@H]1CCCCO[C@@H](CN(C)CC2CCCCC2)[C@H](C)CN([C@H](C)CO)C(=O)c2cc(NC(=O)Nc3cccc4ccccc34)ccc2O1
AC50 [8]: 14.8 µM (active)
AC50 [9]: 13.8 µM (active)
AC50 [10]: 7.47 µM (active)

Nc1c(Cl)ncnc1Nc1ccc(C(=O)O)cc1
IC50 [11]: 83.2 µM (inactive)
IC50 [12]: 12.5 µM (inactive)
IC50 [13]: 3.93 µM (active)

N#Cc1c(-c2ccccc2)c(-c2ccccc2)n(Cc2ccco2)c1NC(=O)c1cccs1
IC50 [14]: > 69.5 µM (inactive)
IC50 [15]: > 69.5 µM (inactive)
EC50 [16]: > 260 µM (inactive)

Cc1cc(Br)ccc1NC(=O)c1ccc(-n2cncn2)c([N+](=O)[O-])c1
IC50 [11]: 83.3 µM (inactive)
IC50 [12]: 119 µM (inactive)
IC50 [13]: 5.79 µM (active)

COc1ccc(Cn2nnnc2C(CC(C)C)N2CCN(c3ccccc3)CC2)cc1 (stereo not drawn)
IC50 [17]: > 9.99 µM (inactive)
CC50 [18]: > 50 µM (active)

CCOC(=O)c1cc2c(c(-c3cccc(C#CCN(C)C)c3)n1)[C@@H](CCO)N([S+]([O-])C(C)(C)C)C2 (stereo partly drawn)
AC50 [19]: 16.2 µM (active)

COc1ccc(NC(=O)N(C)C[C@@H]2OCCCC[C@H](C)Oc3ccc(NC(=O)NC4CCCCC4)cc3C(=O)N([C@H](C)CO)C[C@@H]2C)cc1
AC50 [20]: 18.2 µM (active)
